Measurements from patent publication US5508384A, “Polypeptide derived from a popamine receptor, and compositions and methods thereof” (New York University, priority 1993, dated 1996).

Key:
[1] = system: dopamine receptor sites in the basal ganglia; conditions: cited from earlier work
[2] = system: norepinephrine receptor sites in thalamic and hypothalamic areas; conditions: cited from earlier work
[3] = basal ganglia, thalamic and hypothalamic areas; cited from earlier work
[4] = in vivo; cited from earlier work
[5] = Radioligand binding assay, polypeptide in DMPC small unilamellar vesicles; conditions: lipid:peptide 147:1, 1 h at 25° C., pH 7.4, FIG. 7
Procedure: Preparation of Small Unilamellar Visicles. Polypeptides were incorporated into DMPC vesicles at lipid:peptide ratio of 147:1 in the followinq manner: polypept ide in HFIP was mixed with dimyrystyroyl-phosphatidylcholine (synthetic) (DMPC) in dry chloroform and dried to a film with a stream of dry nitrogen at 0° C. This residue was then dried further overnight under a vacuum (1×10^-2 torr). The residue was then hydrated in […] and sonicated for a 30-min period under nitrogen at 0° C. The suspension was sedimented for a 30-min at 100,000 q (4° C.) to remove any residual titanium particles and large unilamellar vesicles The supernatant was removed and sedimented once more at 159,000 g for a 45 min period at 4° C. The supernatant in the lower portion was used immediately.
Radioligand Bining Assays. A 0.50 mL volume of 1.00 nM [^3 H]-spiperone(New England specific activity […]) was added to assay tubes which contained 0.5 mL lipid/peptide supernatant, 0.5 mL Tris buffer pH 7.4 and 0.5 mL of cold drug for a final volume of 2.0 mL. […]
Filters were then washed with 6.0 mL of cold 50 mM Tris-HCl buffer, pH 7.40. For detection of radioactivity, filters were placed in 2.0 mL of scintillation fluid (Scintiverse) and incubated for 24 h. The activity of the tritium was determined in a Beckman LS 7500 liquid scintillation counter. […]

[6] = Circular dichroism, helical content; format: physicochemical; conditions: solvent system in which most membrane polypeptides are strongly helical; FIG. 6
Procedure: Circular Dichroism (CD). Spectra were recorded on an Aviv model 60 DS circular dichroism spectrophotometer at room temperature with a 1 cm by 1 mm cell. The amplitude of the CD signal was calibrated using 10.1% (w/v) solution of d (+)-camphorsulfonic acid (Aldrich) and the wavelength of the CD signal was set using standard absorbance peaks of benzene vapor. Polypeptide ccncentrations were determined in a Cary 210 UV spectrophotomer wwith the absorbance measured at 280 nm. Helical content was estimated using CD signal intensity according to the method of Chen. et al Biochem. 13:[…] (1974). This calculation compares the experimental ellipticity at. 222 nm ( [θ]222) ( [θ]) to a theoretical [θ]222. The theoretical [θ]222 is empirically adjusted to account for differences in polypeptide length and is based on experimental CD data from a series of proteins with known crystal structures. Since both the curve shape and magnitude are important in analysis of a CD spectrum for secondary structure contributions, we also considered qualitatively the contributions to the spectral shapes from different secondary structures using reference curves for poly (L-lysine).

In the case of `CN(C)CCCN1c2ccccc2Sc2ccc(Cl)cc21` [Chlorpromazine], the “Blocks DA” value [1] is listed as “Yes++” and the “Blocks NE” value [2] is listed as “Yes++”.
In the case of `O=C(CCCN1CCC(O)(c2ccc(Cl)cc2)CC1)c1ccc(F)cc1` [Haloperidol], the “Blocks DA” value [1] is listed as “Yes++++” and the “Blocks NE” value [2] is listed as “Yes+”.
In the case of `COC(=O)[C@H]1[C@H]2C[C@@H]3c4[nH]c5cc(OC)ccc5c4CCN3C[C@H]2C[C@@H](OC(=O)c2cc(OC)c(OC)c(OC)c2)[C@@H]1OC` [Reserpine], the “concentrations of norepinephrine and dopamine” value [3] is listed as “reduces”.
In the case of `CN1CCN(CC/C=C2/c3ccccc3Sc3ccc(S(=O)(=O)N(C)C)cc32)CC1` [Thiothixene], the “Blocks DA” value [1] is given as “Yes+” and the “Blocks NE” value [2] is given as “Yes+++”.
For `CN1CCN(C2=Nc3cc(Cl)ccc3Nc3ccccc32)CC1` [clozapine], the motor side effects [4] is listed as “apparently capable of producing less motor side effects”.
In the case of “Polypeptide III: consensus peptide of the dopamine D2 receptor transmembrane domains I-VII (DYAIFVLYASAWLSFNCPFIVTLNIK)”, the “binding of [^3 H]-spiperone (receptor-like functional binding)” value [5] is reported as “binding to the neuroleptic agent, spiperone, into a stereoselective, concentration-dependent manner” and the “helical structure from CD spectrum” value [6] is reported as “only partially helical”.
